Assay results reported in patent US20210085640A1, “ACYLATED CATECHIN POLYPHENOLS AND METHODS OF THEIR USE FOR THE TREATMENT OF CANCER” (Flagship Pioneering Innovations V, Inc., priority 2018, published 2021).

How the values were obtained:
Format in all cases: cell-based
T24 bladder cancer cells = test: Cancer cell survival (CellTiter-Glo), T24; settings: Homo sapiens
Procedure, shortened: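 Viability by CellTiter-Glo after 72 h compound treatment of T24 bladder cancer cells (4×10^3/well, plated the night before), nine concentration levels in triplicate. Percent survival normalised to untreated cells minus medium background, from which IC50 was determined.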

[1] = system: Daudi lymphoma cancer cells; test: Cancer cell survival (CellTiter-Glo), Daudi; settings: Homo sapiens, 72 h
Procedure, shortened: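 Daudi cells (4×10^3/well) were exposed for 72 h at 37 °C to nine concentrations of compound, added as 10× solutions spanning 1 μM–10 mM (fatty acids) or 100 nM–1 mM (others). CellTiter-Glo luminescence gave % survival versus untreated, medium-blank corrected; IC50 derived.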

MCF7 breast cancer cells = test: Cancer cell survival (CellTiter-Glo), MCF7; settings: Homo sapiens, 72 h
Procedure, shortened: (§1)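 CellTiter-Glo luminescence after 72 h compound exposure (37 C, 5% CO2; nine concentration levels, triplicate) of overnight-plated cells at 4×10^3 per well. IC50 calculated from survival % relative to untreated cells after medium-background subtraction.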

[2] = system: HCT 116 colorectal cancer cells; test: Cancer cell survival (CellTiter-Glo), HCT 116; settings: Homo sapiens, HCT 116 cells, 72 h
Procedure, shortened: as §1

A549 lung cancer cells = test: Cancer cell survival (CellTiter-Glo), A549; settings: Homo sapiens, 72 h
Procedure, shortened: as §1

[3] = system: PC-3 prostate cancer cells; test: Cancer cell survival (CellTiter-Glo), PC-3; settings: Homo sapiens, PC-3 cells, 72 h
Procedure, shortened: as §1

A-431 skin cancer cells = test: Cancer cell survival (CellTiter-Glo), A-431; settings: Homo sapiens, A-431 cells, 72 h
Procedure, shortened: as §1

AGS stomach cancer cells = test: Cancer cell survival (CellTiter-Glo), AGS
Procedure, shortened: as §1

[4] = 317 μM, read-out: Cell survival at given concentration
[5] = 1 mM, read-out: Cell survival at given concentration
[6] = 3 mM, read-out: Cell survival at given concentration
[7] = 10 mM, read-out: Cell survival at given concentration

CCCC(=O)O [butyrate]
viability at 1 µM (T24 bladder cancer cells; T-24, 1 μM, 72 h, Table 3.2, read-out: Cell survival at given concentration): 98% | viability at 3 µM (T24 bladder cancer cells; T-24, 3 μM, 72 h, Table 3.2, read-out: Cell survival at given concentration): 100% | viability at 10 µM (T24 bladder cancer cells; T-24, 10 μM, 72 h, Table 3.2, read-out: Cell survival at given concentration): 105% | viability at 32 µM (T24 bladder cancer cells; T-24, 32 μM, 72 h, Table 3.2, read-out: Cell survival at given concentration): 99% | viability at 100 µM (T24 bladder cancer cells; T-24, 100 μM, 72 h, Table 3.2, read-out: Cell survival at given concentration): 97% | viability at 317 µM (T24 bladder cancer cells; T-24, 317 μM, 72 h, read-out: Cell survival at given concentration): 90% | viability at 1000 µM (T24 bladder cancer cells; T-24, 1 mM, 72 h, read-out: Cell survival at given concentration): 84% | viability at 3000 µM (T24 bladder cancer cells; T-24, 3 mM, 72 h, read-out: Cell survival at given concentration): 60% | viability at 10000 µM (T24 bladder cancer cells; T-24, 10 mM, 72 h, read-out: Cell survival at given concentration): 27% | IC50 (T24 bladder cancer cells; T-24, 72 h, Table 3.2, read-out: IC50): 4.72 mM | viability at 1 µM ([1]; 1 μM, Table 4.2, read-out: Cell survival at given concentration): 101% | viability at 3 µM ([1]; 3 μM, Table 4.2, read-out: Cell survival at given concentration): 99% | viability at 10 µM ([1]; 10 μM, Table 4.2, read-out: Cell survival at given concentration): 100% | viability at 32 µM ([1]; 32 μM, Table 4.2, read-out: Cell survival at given concentration): 100% | viability at 100 µM ([1]; 100 μM, Table 4.2, read-out: Cell survival at given concentration): 99% | viability at 317 µM [1, 4]: 87% | viability at 1000 µM [1, 5]: 46% | viability at 3000 µM [1, 6]: 19% | viability at 10000 µM [1, 7]: 13% | IC50 ([1]; Table 4.2): 0.912 mM | viability at 1 µM (MCF7 breast cancer cells; 1 μM, Table 5.2, read-out: Cell survival at given concentration): 101% | viability at 3 µM (MCF7 breast cancer cells; 3 μM, Table 5.2, read-out: Cell survival at given concentration): 103% | viability at 10 µM (MCF7 breast cancer cells; 10 μM, Table 5.2, read-out: Cell survival at given concentration): 102% | viability at 32 µM (MCF7 breast cancer cells; 32 μM, Table 5.2, read-out: Cell survival at given concentration): 100% | viability at 100 µM (MCF7 breast cancer cells; 100 μM, Table 5.2, read-out: Cell survival at given concentration): 104% | viability at 317 µM (MCF7 breast cancer cells; [4]): 98% | viability at 1000 µM (MCF7 breast cancer cells; [5]): 82% | viability at 3000 µM (MCF7 breast cancer cells; [6]): 54% | viability at 10000 µM (MCF7 breast cancer cells; [7]): 24% | IC50 (MCF7 breast cancer cells; Table 5.2): 3.59 mM | viability at 1 µM ([2]; 1 μM, Table 6.2, read-out: Cell survival at given concentration): 98% | viability at 3 µM ([2]; 3 μM, Table 6.2, read-out: Cell survival at given concentration): 99% | viability at 10 µM ([2]; 10 μM, Table 6.2, read-out: Cell survival at given concentration): 102% | viability at 32 µM ([2]; 32 μM, Table 6.2, read-out: Cell survival at given concentration): 101% | viability at 100 µM ([2]; 100 μM, Table 6.2, read-out: Cell survival at given concentration): 97% | viability at 317 µM [2, 4]: 92% | viability at 1000 µM [2, 5]: 66% | viability at 3000 µM [2, 6]: 18% | viability at 10000 µM [2, 7]: 1% | IC50 ([2]; Table 6.2): 1.44 mM | viability at 1 µM (A549 lung cancer cells; 1 μM, Table 7.2, read-out: Cell survival at given concentration): 95% | viability at 3 µM (A549 lung cancer cells; 3 μM, Table 7.2, read-out: Cell survival at given concentration): 96% | viability at 10 µM (A549 lung cancer cells; 10 μM, Table 7.2, read-out: Cell survival at given concentration): 99% | viability at 32 µM (A549 lung cancer cells; 32 μM, Table 7.2, read-out: Cell survival at given concentration): 100% | viability at 100 µM (A549 lung cancer cells; 100 μM, Table 7.2, read-out: Cell survival at given concentration): 102% | viability at 317 µM (A549 lung cancer cells; [4]): 101% | viability at 1000 µM (A549 lung cancer cells; [5]): 90% | viability at 3000 µM (A549 lung cancer cells; [6]): 67% | viability at 10000 µM (A549 lung cancer cells; [7]): 27% | IC50 (A549 lung cancer cells; Table 7.2): 5.07 mM | viability at 1 µM ([3]; 1 μM, Table 8.2, read-out: Cell survival at given concentration): 100% | viability at 3 µM ([3]; 3 μM, Table 8.2, read-out: Cell survival at given concentration): 99% | viability at 10 µM ([3]; 10 μM, Table 8.2, read-out: Cell survival at given concentration): 100% | viability at 32 µM ([3]; 32 μM, Table 8.2, read-out: Cell survival at given concentration): 100% | viability at 100 µM ([3]; 100 μM, Table 8.2, read-out: Cell survival at given concentration): 98% | viability at 317 µM [3, 4]: 93% | viability at 1000 µM [3, 5]: 82% | viability at 3000 µM [3, 6]: 66% | viability at 10000 µM [3, 7]: 40% | IC50 ([3]; Table 8.2): 6.44 mM | viability at 1 µM (A-431 skin cancer cells; 1 μM, Table 9.2, read-out: Cell survival at given concentration): 103% | viability at 3 µM (A-431 skin cancer cells; 3 μM, Table 9.2, read-out: Cell survival at given concentration): 102% | viability at 10 µM (A-431 skin cancer cells; 10 μM, Table 9.2, read-out: Cell survival at given concentration): 102% | viability at 32 µM (A-431 skin cancer cells; 32 μM, Table 9.2, read-out: Cell survival at given concentration): 103% | viability at 100 µM (A-431 skin cancer cells; 100 μM, Table 9.2, read-out: Cell survival at given concentration): 99% | viability at 317 µM (A-431 skin cancer cells; [4]): 96% | viability at 1000 µM (A-431 skin cancer cells; [5]): 85% | viability at 3000 µM (A-431 skin cancer cells; [6]): 67% | viability at 10000 µM (A-431 skin cancer cells; [7]): 37% | IC50 (A-431 skin cancer cells; Table 9.2): 6.32 mM | viability at 1 µM (AGS stomach cancer cells; 72 h, 1 μM, Table 10.2, read-out: Cell survival at given concentration): 100% | viability at 3 µM (AGS stomach cancer cells; 72 h, 3 μM, Table 10.2, read-out: Cell survival at given concentration): 100% | viability at 10 µM (AGS stomach cancer cells; 72 h, 10 μM, Table 10.2, read-out: Cell survival at given concentration): 102% | viability at 32 µM (AGS stomach cancer cells; 72 h, 32 μM, Table 10.2, read-out: Cell survival at given concentration): 101% | viability at 100 µM (AGS stomach cancer cells; 72 h, 100 μM, Table 10.2, read-out: Cell survival at given concentration): 104% | viability at 317 µM (AGS stomach cancer cells; 72 h, 317 μM, read-out: Cell survival at given concentration): 105% | viability at 1000 µM (AGS stomach cancer cells; 72 h, 1 mM, read-out: Cell survival at given concentration): 91% | viability at 3000 µM (AGS stomach cancer cells; 72 h, 3 mM, read-out: Cell survival at given concentration): 65% | viability at 10000 µM (AGS stomach cancer cells; 72 h, 10 mM, read-out: Cell survival at given concentration): 11% | IC50 (AGS stomach cancer cells; Table 10.2): 4.46 mM
